Assay [1] can be described thus: Fluorescence-based cell-based high throughput dose response assay for inhibitors of the interaction of nucleotide-binding oligomerization domain containing 2 (NOD2) and the receptor-interacting serine-threonine kinase 2 (RIPK2). In kind it is functional. As to conditions: Homo sapiens.
In assay [2] the target is T1, ATP-dependent translocase ABCB1 (Homo sapiens, UniProt P08183). As to the kind of experiment: inhibition of BCRP-mediated JC-1 efflux – Ig-MXP3 cells, flow cytometry, set 2, dose response (AID 504566).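 Note: flow cytometry median green fluorescence of retained JC-1 dye; potency of efflux pump inhibition measured as rising substrate retention.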 In kind it is functional. As to conditions: read-out: EC50_MICROM_. On the technique in general: A flow cytometer gives signals particle by particle.
T1 sequence (P08183 whole entry): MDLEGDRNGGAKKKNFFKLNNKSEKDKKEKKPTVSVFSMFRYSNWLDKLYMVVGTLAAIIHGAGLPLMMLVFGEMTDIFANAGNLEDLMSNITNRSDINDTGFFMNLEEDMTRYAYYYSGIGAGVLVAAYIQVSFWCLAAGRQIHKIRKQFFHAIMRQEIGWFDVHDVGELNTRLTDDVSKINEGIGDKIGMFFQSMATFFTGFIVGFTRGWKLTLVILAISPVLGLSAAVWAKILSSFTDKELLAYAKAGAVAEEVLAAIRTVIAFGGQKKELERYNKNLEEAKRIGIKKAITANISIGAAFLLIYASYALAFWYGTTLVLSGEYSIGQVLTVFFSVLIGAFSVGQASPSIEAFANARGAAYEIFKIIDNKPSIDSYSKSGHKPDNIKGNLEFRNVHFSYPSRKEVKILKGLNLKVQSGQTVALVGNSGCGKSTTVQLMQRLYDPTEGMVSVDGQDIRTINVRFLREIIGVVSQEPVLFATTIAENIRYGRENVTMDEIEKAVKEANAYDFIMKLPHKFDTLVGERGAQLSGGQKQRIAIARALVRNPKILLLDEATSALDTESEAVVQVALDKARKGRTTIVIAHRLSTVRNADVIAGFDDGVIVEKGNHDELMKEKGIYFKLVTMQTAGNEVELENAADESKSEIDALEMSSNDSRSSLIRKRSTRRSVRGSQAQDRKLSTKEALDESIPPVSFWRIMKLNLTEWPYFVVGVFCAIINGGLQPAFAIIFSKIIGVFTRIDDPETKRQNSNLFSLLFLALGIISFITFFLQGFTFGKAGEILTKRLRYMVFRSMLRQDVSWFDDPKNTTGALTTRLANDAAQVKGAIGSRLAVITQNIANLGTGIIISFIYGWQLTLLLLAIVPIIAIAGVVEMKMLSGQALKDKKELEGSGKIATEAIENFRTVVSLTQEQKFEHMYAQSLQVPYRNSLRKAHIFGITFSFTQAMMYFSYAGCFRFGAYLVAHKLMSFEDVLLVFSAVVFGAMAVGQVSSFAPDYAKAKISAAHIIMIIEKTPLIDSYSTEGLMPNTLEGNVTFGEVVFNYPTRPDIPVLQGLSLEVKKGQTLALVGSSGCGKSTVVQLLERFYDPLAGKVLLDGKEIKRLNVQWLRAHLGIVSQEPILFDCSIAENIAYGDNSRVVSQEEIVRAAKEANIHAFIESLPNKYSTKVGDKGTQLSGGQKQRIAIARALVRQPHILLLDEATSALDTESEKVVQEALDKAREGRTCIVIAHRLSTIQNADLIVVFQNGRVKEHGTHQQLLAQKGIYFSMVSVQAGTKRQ
The target in assay [3] is T1, ATP-dependent translocase ABCB1. The assay can be described thus: P-gp JC-1 efflux blockade concentration-response – Jurkat-DNR cells, flow cytometry, set 2, dose response (AID 504569).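 Note: potency of pump inhibitors that raise cellular JC-1 green fluorescence up to the nicardipine level.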 It is filed as functional. As to conditions: read-out: EC50_MICROM_.
In another assay the target is T2, Caspase-3 (Homo sapiens, UniProt P42574).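 Note: Dose-response selectivity test against caspase-3 for candidate inhibitors of sentrin-specific proteases (SENPs).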
T2 sequence (P42574 whole entry): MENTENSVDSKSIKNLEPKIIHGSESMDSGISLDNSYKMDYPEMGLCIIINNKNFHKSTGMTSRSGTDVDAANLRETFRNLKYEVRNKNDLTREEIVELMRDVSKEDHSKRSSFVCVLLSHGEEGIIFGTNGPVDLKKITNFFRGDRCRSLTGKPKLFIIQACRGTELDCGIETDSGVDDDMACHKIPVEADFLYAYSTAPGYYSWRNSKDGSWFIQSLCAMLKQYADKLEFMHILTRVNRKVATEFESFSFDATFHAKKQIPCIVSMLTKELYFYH
In kind it is functional.

Assay [4] has as its target T3, Sentrin-specific protease 7 (Homo sapiens, UniProt Q9BQF6).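 Note: Luminescence-based dose-response confirmation of ultra-high-throughput screening hits, measuring inhibition of SENP7.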
T3 sequence (Q9BQF6 whole entry): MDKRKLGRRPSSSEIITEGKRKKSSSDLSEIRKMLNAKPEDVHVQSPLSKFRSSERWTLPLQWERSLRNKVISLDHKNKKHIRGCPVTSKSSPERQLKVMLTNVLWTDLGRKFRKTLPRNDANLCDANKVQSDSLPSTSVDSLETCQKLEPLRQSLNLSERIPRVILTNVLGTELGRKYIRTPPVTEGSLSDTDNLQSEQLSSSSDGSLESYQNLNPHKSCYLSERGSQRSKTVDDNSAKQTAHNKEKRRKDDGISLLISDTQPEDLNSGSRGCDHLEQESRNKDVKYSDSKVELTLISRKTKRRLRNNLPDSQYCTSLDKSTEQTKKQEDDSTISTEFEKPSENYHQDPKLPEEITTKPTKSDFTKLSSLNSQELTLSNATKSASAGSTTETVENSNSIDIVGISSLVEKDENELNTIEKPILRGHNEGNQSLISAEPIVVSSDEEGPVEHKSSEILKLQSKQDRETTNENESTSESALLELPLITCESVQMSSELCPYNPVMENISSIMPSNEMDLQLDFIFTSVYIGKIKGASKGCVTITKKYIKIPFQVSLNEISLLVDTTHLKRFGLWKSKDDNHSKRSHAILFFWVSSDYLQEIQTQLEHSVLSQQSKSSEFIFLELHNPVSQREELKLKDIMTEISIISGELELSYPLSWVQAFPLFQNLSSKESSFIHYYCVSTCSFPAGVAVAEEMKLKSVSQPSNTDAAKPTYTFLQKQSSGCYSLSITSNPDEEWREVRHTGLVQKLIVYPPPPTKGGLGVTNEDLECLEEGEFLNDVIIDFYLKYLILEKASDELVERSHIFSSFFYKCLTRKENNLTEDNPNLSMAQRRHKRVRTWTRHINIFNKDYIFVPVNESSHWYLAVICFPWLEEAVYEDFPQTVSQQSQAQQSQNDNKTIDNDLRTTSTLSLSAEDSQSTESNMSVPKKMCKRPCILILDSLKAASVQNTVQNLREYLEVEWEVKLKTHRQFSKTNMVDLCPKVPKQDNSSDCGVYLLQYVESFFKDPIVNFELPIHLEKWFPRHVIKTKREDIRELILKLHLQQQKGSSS
It is filed as functional.

Assay [5] has as its target T4, Sentrin-specific protease 6 (Homo sapiens, UniProt Q9GZR1).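 Note: Luminescence-based dose-response confirmatory assay of SENP6 inhibition, following up an ultra-high-throughput screen.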
T4 sequence (Q9GZR1 whole entry): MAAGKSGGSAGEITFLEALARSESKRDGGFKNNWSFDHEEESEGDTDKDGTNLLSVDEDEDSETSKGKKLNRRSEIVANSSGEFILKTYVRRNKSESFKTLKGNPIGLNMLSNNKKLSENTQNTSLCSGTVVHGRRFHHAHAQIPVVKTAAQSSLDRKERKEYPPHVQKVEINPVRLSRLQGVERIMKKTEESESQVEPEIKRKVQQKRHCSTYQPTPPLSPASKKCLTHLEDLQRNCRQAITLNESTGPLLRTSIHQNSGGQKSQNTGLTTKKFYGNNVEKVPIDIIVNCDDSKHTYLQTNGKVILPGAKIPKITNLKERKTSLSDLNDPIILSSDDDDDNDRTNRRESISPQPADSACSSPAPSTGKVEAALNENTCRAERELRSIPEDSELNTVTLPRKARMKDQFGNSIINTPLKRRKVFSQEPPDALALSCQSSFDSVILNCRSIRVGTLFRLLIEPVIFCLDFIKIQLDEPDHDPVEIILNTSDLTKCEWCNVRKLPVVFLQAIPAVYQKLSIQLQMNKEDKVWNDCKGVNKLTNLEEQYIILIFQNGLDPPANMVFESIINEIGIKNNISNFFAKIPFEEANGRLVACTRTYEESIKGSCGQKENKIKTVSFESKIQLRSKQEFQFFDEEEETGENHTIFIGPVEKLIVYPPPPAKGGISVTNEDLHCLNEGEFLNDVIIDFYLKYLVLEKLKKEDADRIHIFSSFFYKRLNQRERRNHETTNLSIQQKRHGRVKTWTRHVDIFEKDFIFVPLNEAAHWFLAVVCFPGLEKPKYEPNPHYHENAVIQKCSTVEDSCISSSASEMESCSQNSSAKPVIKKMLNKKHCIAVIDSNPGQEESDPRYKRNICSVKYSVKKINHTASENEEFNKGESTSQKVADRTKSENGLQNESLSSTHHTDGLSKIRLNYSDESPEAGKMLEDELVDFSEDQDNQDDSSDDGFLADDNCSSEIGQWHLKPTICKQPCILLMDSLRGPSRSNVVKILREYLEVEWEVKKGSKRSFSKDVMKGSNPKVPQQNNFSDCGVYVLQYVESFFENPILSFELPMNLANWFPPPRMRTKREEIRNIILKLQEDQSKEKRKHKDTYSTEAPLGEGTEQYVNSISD
It is filed as functional.

The target of assay [6] is T5, Sentrin-specific protease 8 (Homo sapiens, UniProt Q96LD8).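 Note: luminescence read-out of SENP8 inhibition, dose-response confirmation following an ultra-high-throughput screen.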
T5 sequence (Q96LD8 whole entry): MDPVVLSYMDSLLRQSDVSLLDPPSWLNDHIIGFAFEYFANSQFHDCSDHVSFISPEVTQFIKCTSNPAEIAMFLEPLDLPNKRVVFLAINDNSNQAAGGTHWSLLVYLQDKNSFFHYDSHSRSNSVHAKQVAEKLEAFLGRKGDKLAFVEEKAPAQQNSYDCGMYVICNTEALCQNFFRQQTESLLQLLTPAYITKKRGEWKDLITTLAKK
In kind it is functional.

For assay [7], the target named is Heat shock protein HSP 90-alpha (Homo sapiens, UniProt P07900). In kind it is functional, organism-based.
The target in assay [8] is T6, Mitochondrial peptide methionine sulfoxide reductase (Bos taurus, UniProt P54149). As to the kind of experiment: Absorbance-based biochemical high throughput dose response assay for activators of Methionine sulfoxide reductase A (MsrA). In kind it is functional.
T6 sequence (P54149 whole entry): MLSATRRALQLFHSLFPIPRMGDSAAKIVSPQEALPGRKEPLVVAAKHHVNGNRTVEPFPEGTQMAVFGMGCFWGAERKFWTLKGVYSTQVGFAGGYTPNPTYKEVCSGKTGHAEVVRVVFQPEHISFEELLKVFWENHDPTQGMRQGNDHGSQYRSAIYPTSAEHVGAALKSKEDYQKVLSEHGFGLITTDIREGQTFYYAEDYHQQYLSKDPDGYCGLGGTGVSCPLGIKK
Another assay has as its target T7, Caspase-6 (Homo sapiens, UniProt P55212).
T7 sequence (P55212 whole entry): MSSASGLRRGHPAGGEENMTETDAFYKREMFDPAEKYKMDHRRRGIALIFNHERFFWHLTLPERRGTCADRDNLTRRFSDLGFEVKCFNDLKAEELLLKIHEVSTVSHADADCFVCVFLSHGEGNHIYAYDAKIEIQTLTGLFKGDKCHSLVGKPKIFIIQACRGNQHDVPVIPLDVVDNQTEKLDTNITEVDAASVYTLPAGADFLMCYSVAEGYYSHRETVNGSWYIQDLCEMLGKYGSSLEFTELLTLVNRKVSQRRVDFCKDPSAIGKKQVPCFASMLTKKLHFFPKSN
As to the kind of experiment: inhibition of CASP6 peptide cleavage – biochemical, VEID-R110 fluorescence, cherry-pick, dose response (AID 720632).

The next assay has as its target Caspase-9 (Homo sapiens, UniProt P55211). The assay can be described thus: inhibitors of purified CASP9 protease – biochemical, fluorescence, plate reader, cherry-picked samples, selectivity assay for caspase-6 inhibitor project, dose response (AID 743293).
Another assay deals with T8, Caspase-7 (Homo sapiens, UniProt P55210).
T8 sequence (P55210 whole entry): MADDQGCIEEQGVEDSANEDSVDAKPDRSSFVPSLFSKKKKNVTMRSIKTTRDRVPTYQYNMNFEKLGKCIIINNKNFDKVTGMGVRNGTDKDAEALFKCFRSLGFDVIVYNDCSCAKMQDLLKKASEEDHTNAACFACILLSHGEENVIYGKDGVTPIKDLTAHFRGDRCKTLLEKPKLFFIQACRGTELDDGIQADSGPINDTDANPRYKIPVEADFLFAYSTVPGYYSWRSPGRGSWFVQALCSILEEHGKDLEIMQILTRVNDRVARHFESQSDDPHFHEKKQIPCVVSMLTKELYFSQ
As to the kind of experiment: caspase-7 enzyme inhibition, selectivity check – biochemical, DEVD-R110 fluorescence, cherry-pick, selectivity assay for caspase-6 inhibitor project, dose response (AID 743295). In kind it is functional.

For another assay, the target named is Caspase-8 (Homo sapiens, UniProt Q14790). The assay can be described thus: inhibitors of purified CASP8 protease – biochemical, Z-IETD-R110 fluorescence, cherry-picked samples, selectivity assay for caspase-6 inhibitor project, dose response (AID 743294).
Caspase-8, sequence (Q14790 217-374 limits assumed): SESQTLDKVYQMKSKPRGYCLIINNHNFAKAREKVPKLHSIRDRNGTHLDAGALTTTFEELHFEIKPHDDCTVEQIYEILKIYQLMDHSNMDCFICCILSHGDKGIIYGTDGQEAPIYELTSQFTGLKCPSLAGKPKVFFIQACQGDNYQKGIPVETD
Caspase-8, sequence (Q14790 385-479 limits assumed): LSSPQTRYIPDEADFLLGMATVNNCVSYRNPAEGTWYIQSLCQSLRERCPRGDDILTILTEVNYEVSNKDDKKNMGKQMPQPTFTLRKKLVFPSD
Assay [9] deals with T6, Mitochondrial peptide methionine sulfoxide reductase. It is filed as functional.
Assay [10] addresses T9, Polyadenylate-binding protein 1 (Homo sapiens, UniProt P11940). The assay can be described thus: MLLE binding blockers, Cy5 peptide tracer – biochemical, fluorescence polarization, Cy5-PAM2 peptide, secondary, miRNA deadenylation inhibitor project, dose response (AID 602260). As to conditions: read-out: IC50_Mean. It is filed as functional.
In assay [11] the target is T9, Polyadenylate-binding protein 1. The assay can be described thus: MLLE domain peptide-binding blockers, IC50 – biochemical, fluorescence polarization, FITC-PAM2 peptide, dose response (AID 602259). In kind it is functional. As to conditions: read-out: IC50_Mean. On the technique in general: In fluorescence polarisation assays a small probe gives low polarisation when free and higher when bound to something large.

In assay [12] the target is Nuclear receptor subfamily 5 group A member 2 (Homo sapiens, UniProt O00482). It is filed as functional, cell-based.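 Note: HEK293T cells transfected with LRH-1 and a StAR promoter luciferase reporter; potency for inhibitors that lower LRH-1 driven reporter light.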
Nuclear receptor subfamily 5 group A member 2, sequence (O00482 whole entry): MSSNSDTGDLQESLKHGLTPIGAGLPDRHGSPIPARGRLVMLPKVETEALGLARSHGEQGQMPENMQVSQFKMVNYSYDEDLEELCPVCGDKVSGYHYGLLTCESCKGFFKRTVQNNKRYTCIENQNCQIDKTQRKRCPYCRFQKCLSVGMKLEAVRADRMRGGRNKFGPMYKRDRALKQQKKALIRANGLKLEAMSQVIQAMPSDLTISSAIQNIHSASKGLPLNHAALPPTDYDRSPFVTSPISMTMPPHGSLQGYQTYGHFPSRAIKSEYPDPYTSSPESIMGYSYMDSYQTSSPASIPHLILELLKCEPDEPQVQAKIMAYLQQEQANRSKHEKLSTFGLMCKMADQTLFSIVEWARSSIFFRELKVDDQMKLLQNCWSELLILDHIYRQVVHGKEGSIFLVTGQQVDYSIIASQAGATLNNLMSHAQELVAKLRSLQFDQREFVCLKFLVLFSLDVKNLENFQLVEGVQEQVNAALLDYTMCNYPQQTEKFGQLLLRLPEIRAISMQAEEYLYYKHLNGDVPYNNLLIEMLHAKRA
The next assay addresses Steroidogenic factor 1 (Homo sapiens, UniProt Q13285). The assay can be described thus: Counterscreen for inverse agonists of the liver receptor homolog-1 (LRH-1; NR5A2): Luminescence-based cell-based high throughput dose response assay to identify inverse agonists of the Steroidogenic Factor 1 Nuclear Receptor (SF1; NR5A1). In kind it is functional.
A short description of assay [13]: nonselective StAR promoter luciferase inhibitors – cell-based, luminescence, luciferase reporter, counter-screen for LRH-1 inverse agonist project, dose response (AID 651969). It is filed as functional. On the technique in general: Reporter assays use an easily measured gene product as a stand-in for the process of interest.
Assay [14] is described as follows: HPDE-C7 pancreatic duct cell viability loss – fluorescence, HTS (AID 430). As to conditions: Homo sapiens. It is filed as functional, cell-based.
A short description of assay [15]: viability loss of HPDE-C7K cells – cell-based, fluorescence, HTS, primary screen (AID 431). It is filed as functional. As to conditions: Homo sapiens.
Assay [16] in a line: mitochondrial function rescue without frataxin homolog – Friedreich's ataxia, plus single-dose screen, dose response (AID 1465).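 Note: yeast depleted of Yfh1p frataxin homolog grown on glycerol needing respiration; WST-1 tetrazolium dye reduction as measure of cellular dehydrogenase metabolic activity.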 In kind it is functional.
Assay [17] relates to Vero. As to the kind of experiment: cells. As to conditions: Chlorocebus sabaeus. It is filed as functional, cell-based.
The subject of another assay is H9c2. As to the kind of experiment: cells. It is filed as functional, cell-based. As to conditions: Rattus norvegicus, H9c2, Myocardium.
For assay [18], the system named is Vero. As to the kind of experiment: cells. It is filed as functional, Chlorocebus sabaeus.
Assay [19] has as its target Aryl hydrocarbon receptor (Homo sapiens, UniProt P35869). As to conditions: Potency.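 Note: confirmatory quantitative high-throughput screen measuring activation of the AhR signaling pathway.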

In general, AC50 refers to the midpoint of the concentration-response curve, whichever way the signal moves. In general, CC50 refers to the concentration that lowers cell viability or growth by half.

The source made the active and inactive calls.

T9 sequence (P11940 whole entry, the tested form may be a part): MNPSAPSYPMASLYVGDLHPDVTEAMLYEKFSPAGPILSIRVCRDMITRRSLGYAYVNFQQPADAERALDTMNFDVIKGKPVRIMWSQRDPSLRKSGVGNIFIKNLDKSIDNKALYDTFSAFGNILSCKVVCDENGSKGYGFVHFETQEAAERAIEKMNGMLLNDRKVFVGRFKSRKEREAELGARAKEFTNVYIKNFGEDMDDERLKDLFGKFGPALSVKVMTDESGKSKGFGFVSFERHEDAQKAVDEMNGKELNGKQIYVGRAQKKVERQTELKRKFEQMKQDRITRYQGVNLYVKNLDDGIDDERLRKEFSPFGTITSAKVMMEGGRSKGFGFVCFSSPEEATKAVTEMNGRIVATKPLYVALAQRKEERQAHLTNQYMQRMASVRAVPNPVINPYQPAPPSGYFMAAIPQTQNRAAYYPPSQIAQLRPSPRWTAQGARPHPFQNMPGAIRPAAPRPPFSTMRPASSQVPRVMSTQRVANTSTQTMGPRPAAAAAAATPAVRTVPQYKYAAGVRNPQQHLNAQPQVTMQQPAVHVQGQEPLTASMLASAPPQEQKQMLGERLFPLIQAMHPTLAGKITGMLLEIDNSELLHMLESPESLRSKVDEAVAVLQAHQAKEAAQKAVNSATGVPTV
Steroidogenic factor 1, sequence (Q13285 whole entry): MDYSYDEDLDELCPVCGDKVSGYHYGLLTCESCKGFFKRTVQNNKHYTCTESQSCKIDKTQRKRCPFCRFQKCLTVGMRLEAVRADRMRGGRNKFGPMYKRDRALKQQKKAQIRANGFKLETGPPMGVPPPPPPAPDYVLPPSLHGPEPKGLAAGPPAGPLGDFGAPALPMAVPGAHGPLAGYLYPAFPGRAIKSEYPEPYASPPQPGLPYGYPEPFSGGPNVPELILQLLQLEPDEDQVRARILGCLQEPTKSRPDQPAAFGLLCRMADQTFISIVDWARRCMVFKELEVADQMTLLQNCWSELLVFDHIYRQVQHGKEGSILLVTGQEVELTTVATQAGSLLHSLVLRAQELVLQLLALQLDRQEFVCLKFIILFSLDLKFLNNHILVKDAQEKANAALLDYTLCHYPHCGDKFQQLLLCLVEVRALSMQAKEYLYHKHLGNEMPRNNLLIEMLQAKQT
Aryl hydrocarbon receptor, sequence (P35869 whole entry): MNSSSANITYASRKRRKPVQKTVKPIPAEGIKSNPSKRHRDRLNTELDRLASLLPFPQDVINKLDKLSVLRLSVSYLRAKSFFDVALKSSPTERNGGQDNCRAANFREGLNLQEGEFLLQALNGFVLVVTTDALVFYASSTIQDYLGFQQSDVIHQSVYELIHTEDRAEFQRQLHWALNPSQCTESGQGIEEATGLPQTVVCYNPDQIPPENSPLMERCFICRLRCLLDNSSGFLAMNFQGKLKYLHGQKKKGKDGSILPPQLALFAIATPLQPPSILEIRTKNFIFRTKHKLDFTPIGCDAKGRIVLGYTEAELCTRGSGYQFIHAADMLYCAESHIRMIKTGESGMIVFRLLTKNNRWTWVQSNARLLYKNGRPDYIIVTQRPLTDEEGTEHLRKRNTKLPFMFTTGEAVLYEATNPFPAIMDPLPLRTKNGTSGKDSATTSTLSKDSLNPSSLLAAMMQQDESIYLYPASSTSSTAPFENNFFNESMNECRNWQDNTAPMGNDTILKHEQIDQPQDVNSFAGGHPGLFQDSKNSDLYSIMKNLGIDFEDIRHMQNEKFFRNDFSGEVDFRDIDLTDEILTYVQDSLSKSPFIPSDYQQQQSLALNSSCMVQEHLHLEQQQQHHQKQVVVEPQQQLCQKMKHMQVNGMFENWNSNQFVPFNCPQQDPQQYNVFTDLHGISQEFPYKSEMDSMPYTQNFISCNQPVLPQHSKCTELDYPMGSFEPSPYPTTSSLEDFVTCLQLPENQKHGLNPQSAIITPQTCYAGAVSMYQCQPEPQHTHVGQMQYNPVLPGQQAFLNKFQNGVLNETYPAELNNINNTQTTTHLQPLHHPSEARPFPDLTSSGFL
Caspase-9, sequence (P55211 1-315 limits assumed): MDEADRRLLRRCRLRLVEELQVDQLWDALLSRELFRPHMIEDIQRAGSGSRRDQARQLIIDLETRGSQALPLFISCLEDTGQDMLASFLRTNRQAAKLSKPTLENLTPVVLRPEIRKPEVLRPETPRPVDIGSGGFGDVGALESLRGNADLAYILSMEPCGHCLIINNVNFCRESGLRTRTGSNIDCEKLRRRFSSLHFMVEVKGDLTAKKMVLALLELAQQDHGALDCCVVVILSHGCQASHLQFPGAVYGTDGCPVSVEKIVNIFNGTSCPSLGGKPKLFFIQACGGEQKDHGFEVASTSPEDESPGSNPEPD
Caspase-9, sequence (P55211 331-416 limits assumed): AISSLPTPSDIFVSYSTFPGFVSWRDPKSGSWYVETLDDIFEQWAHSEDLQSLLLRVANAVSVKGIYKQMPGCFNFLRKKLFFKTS

As to `COc1ccc(C2=CC(=O)N(Nc3ccccc3)C2=O)cc1`, the IC50 in assay [1] was 4.21 µM (active).

`O=C(c1ccco1)N1CCN(c2cc(-c3ccccc3)nc3cc(-c4ccc(F)cc4)nn23)CC1`: the EC50 in assay [2] was 1.05 µM (active); in assay [3], 3.4 µM (active).

For `COc1ccccc1NC(=O)COC(=O)c1ccc([N+](=O)[O-])s1`, the IC50 on Caspase-3 is 11.5 µM (active); in [4], 7.35 µM (active); in assay [5], 4.94 µM (active); in [6], 3.83 µM (active). Further, the AC50 in assay [7] is 6.12 µM (active); at Caspase-6, 1.95 µM (active); at Caspase-9 it was 23.7 µM (active); on Caspase-7 it was 16.4 µM (active); at Caspase-8, 22 µM (active). Moreover, in assay [8], the EC50 is 39.4 µM (inactive).

Consider `Cc1ccccc1/C=N/n1c(S)nnc1C1CCCCC1`, for which the IC50 in assay [9] is 155 µM (inactive).

As to `O=C(CSc1nnc(CNC(=O)c2ccccc2F)o1)Nc1ccc2c(c1)OCCO2`, the IC50 was > 66 µM (inactive) in assay [10]; > 66 µM (inactive) in assay [11]; 17.6 µM (inactive) in [12]; 1.56 µM (active) at Steroidogenic factor 1; 35.9 µM (inactive) in assay [13].

Take `COc1cc(/C=C/C(=O)CC(=O)/C=C/c2ccc(O)c(OC)c2)ccc1O` [CURCUMIN]: the results for the EC50 in assay [14], in assay [15] and in [16] were 13.1 µM (active), 6.97 µM (active) and > 100 µM (active), respectively. Also, the IC50 in the assay on Vero [17] is > 25 µM (active); in the assay on H9c2, > 79 µM (inactive). For the same molecule, the CC50 is 19.5 µM (active) in the assay with Vero [18] and 19.9 µM (active) in the assay on Vero [18] (Chlorocebus sabaeus, Vero). In addition, in [19], the AC50 is 56.2 µM (inconclusive).

(Values after ChEMBL document CHEMBL1201862, “PubChem BioAssay data set” (2004).)
